Measurements taken from PubChem BioAssay (NCI).
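At the GI50, growth is halved. TGI marks complete inhibition of growth.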

What was measured:
Assay in all cases: NCI-60 cell line screen, 384-well format
[1] = tested on: 786-0 renal
[2] = tested on: A498 renal
[3] = tested on: A549 NSCLC
[4] = tested on: BT-549 breast
[5] = tested on: COLO 205 colon
[6] = tested on: DU-145 prostate
[7] = tested on: EKVX NSCLC
[8] = tested on: HCC-2998 colon
[9] = tested on: HCT-15 colon
[10] = tested on: HL-60(TB) leukemia
[11] = tested on: HOP-62 NSCLC
[12] = tested on: HOP-92 NSCLC
[13] = tested on: HS 578T breast
[14] = tested on: HT29 colon
[15] = tested on: K-562 leukemia
[16] = tested on: KM12 colon
[17] = tested on: MALME-3M melanoma
[18] = tested on: MCF7 breast
[19] = tested on: MDA-MB-231 breast
[20] = tested on: MDA-MB-435 melanoma
[21] = tested on: MOLT-4 leukemia
[22] = tested on: NCI-H226 lung
[23] = tested on: NCI-H23 lung
[24] = tested on: NCI-H322M lung
[25] = tested on: NCI-H460 NSCLC
[26] = tested on: NCI-H522 lung
[27] = tested on: NCI/ADR-RES ovarian
[28] = tested on: OVCAR-3 ovarian
[29] = tested on: OVCAR-4 ovarian
[30] = tested on: OVCAR-5 ovarian
[31] = tested on: OVCAR-8 ovarian
[32] = tested on: PC-3 prostate
[33] = tested on: RPMI-8226 leukemia
[34] = tested on: RXF 393 renal
[35] = tested on: SF-268 CNS
[36] = tested on: SF-539 CNS
[37] = tested on: SK-MEL-28 melanoma
[38] = tested on: SK-MEL-5 melanoma
[39] = tested on: SK-OV-3 ovarian
[40] = tested on: SN12C renal
[41] = tested on: SNB-75 CNS
[42] = tested on: SW-620 colon
[43] = tested on: T-47D breast
[44] = tested on: TK-10 renal
[45] = tested on: UACC-257 melanoma
[46] = tested on: UACC-62 melanoma
[47] = tested on: UO-31 renal

CC(O)[C@H](NC(=O)N[C@@H](CC(N)=O)c1nc(N2CCNCC2)no1)C(=O)O (some centres undefined) showed a GI50 [1] greater than 100 µM, a TGI [1] greater than 100 µM and a GI50 [2] greater than 100 µM. The TGI [2] was greater than 100 µM, the GI50 [3] was greater than 100 µM and the TGI [3] was greater than 100 µM. For the same compound, the GI50 [4] was greater than 100 µM, the TGI [4] was greater than 100 µM and the GI50 [5] was greater than 100 µM. The TGI [5] was greater than 100 µM, the GI50 [6] was greater than 100 µM and the TGI [6] was greater than 100 µM. For the same compound, the GI50 [7] was greater than 100 µM, the TGI [7] was greater than 100 µM and the GI50 [8] was greater than 100 µM. It also gave a TGI [8] greater than 100 µM, a GI50 [9] greater than 100 µM and a TGI [9] greater than 100 µM. For the same compound, the GI50 [10] was greater than 100 µM, the TGI [10] was greater than 100 µM and the GI50 [11] was greater than 100 µM. It also gave a TGI [11] greater than 100 µM, a GI50 [12] greater than 100 µM and a TGI [12] greater than 100 µM. For the same compound, the GI50 [13] was greater than 100 µM, the TGI [13] was greater than 100 µM and the GI50 [14] was greater than 100 µM. It also gave a TGI [14] greater than 100 µM, a GI50 [15] greater than 100 µM and a TGI [15] greater than 100 µM. For the same compound, the GI50 [16] was greater than 100 µM, the TGI [16] was greater than 100 µM and the GI50 [17] was greater than 100 µM. For the same compound, the TGI [17] was greater than 100 µM, the GI50 [18] was greater than 100 µM and the TGI [18] was greater than 100 µM. For the same compound, the GI50 [19] was greater than 100 µM, the TGI [19] was greater than 100 µM and the GI50 [20] was greater than 100 µM. For the same compound, the TGI [20] was greater than 100 µM, the GI50 [21] was greater than 100 µM and the TGI [21] was greater than 100 µM. For the same compound, the GI50 [22] was greater than 100 µM, the TGI [22] was greater than 100 µM and the GI50 [23] was greater than 100 µM. For the same compound, the TGI [23] was greater than 100 µM, the GI50 [24] was greater than 100 µM and the TGI [24] was greater than 100 µM. It also gave a GI50 [25] greater than 100 µM, a TGI [25] greater than 100 µM and a GI50 [26] greater than 100 µM. For the same compound, the TGI [26] was greater than 100 µM, the GI50 [27] was greater than 100 µM and the TGI [27] was greater than 100 µM. It also gave a GI50 [28] greater than 100 µM, a TGI [28] greater than 100 µM and a GI50 [29] greater than 100 µM. It also gave a TGI [29] greater than 100 µM, a GI50 [30] greater than 100 µM and a TGI [30] greater than 100 µM. For the same compound, the GI50 [31] was greater than 100 µM, the TGI [31] was greater than 100 µM and the GI50 [32] was greater than 100 µM. The TGI [32] was greater than 100 µM, the GI50 [33] was greater than 100 µM and the TGI [33] was greater than 100 µM. It also gave a GI50 [34] greater than 100 µM, a TGI [34] greater than 100 µM and a GI50 [35] greater than 100 µM. For the same compound, the TGI [35] was greater than 100 µM, the GI50 [36] was greater than 100 µM and the TGI [36] was greater than 100 µM. It also gave a GI50 [37] greater than 100 µM, a TGI [37] greater than 100 µM and a GI50 [38] greater than 100 µM. For the same compound, the TGI [38] was greater than 100 µM, the GI50 [39] was greater than 100 µM and the TGI [39] was greater than 100 µM. The GI50 [40] was greater than 100 µM, the TGI [40] was greater than 100 µM and the GI50 [41] was greater than 100 µM. For the same compound, the TGI [41] was greater than 100 µM, the GI50 [42] was greater than 100 µM and the TGI [42] was greater than 100 µM. The GI50 [43] was greater than 100 µM, the TGI [43] was greater than 100 µM and the GI50 [44] was greater than 100 µM. The TGI [44] was greater than 100 µM, the GI50 [45] was greater than 100 µM and the TGI [45] was greater than 100 µM. It also gave a GI50 [46] greater than 100 µM, a TGI [46] greater than 100 µM and a GI50 [47] greater than 100 µM. The TGI [47] was greater than 100 µM.
